The values that follow are results of earlier work, collected in patent publication EP3173421A1, “PEPTIDIC COMPOUNDS USEFUL AS ANTIBACTERIAL AGENTS” (Universitat de Barcelona, priority 2015, dated 2017).

Where a SMILES comes first, the peptide text is derived from it. Bridges are numbered along the chain shown (N, C = ends). Where no end group is shown, it is not given here. [ ]: non-standard residue; d: D form. The star is where a group is joined. ξ: configuration not given here. Thr(3ξ) = CC(O)[C@H](N)C(=O)O; Decanoyl = CCCCCCCCCC(=O)*; Nonanoyl = CCCCCCCCC(=O)*; X1 = CC[C@H](C)CCCCC(=O)*; Nle = CCCC[C@H](N)C(=O)O; Dab = NCC[C@H](N)C(=O)O Where only a bound is given, the exact number is not on record here.

What is called MIC is the least concentration at which growth counts as inhibited.

The conditions of series [1]: after 6h; kidneys versus serum; cited from earlier work.
Series [2] has as its system Pseudomonas aeruginosa ATCC 9027. The note with it: P. aeruginosa ATTC9027 (non-resistant); comparative examples, extracted from Rabanal et al. 2015; cited from earlier work.
Series [3] relates to Escherichia coli ATCC 8739. The note with it: E coli ATCC8739 (non-resistant); comparative examples, extracted from Rabanal et al. 2015; cited from earlier work.
Series [4] deals with Staphylococcus aureus ATTC6538. The note with it: S. aureus ATTC6538; comparative examples, extracted from Rabanal et al. 2015; cited from earlier work.
The subject of series [5] is Escherichia coli NDM-1. The note with it: E coli NDM-1; comparative examples, extracted from Rabanal et al. 2015; cited from earlier work.
Series [6] has as its system Escherichia coli VAL 10. The note with it: E coli VAL10; comparative examples, extracted from Rabanal et al. 2015; cited from earlier work.
Series [7] relates to Escherichia coli MAC21a. The note with it: E coli MAC21 a; comparative examples, extracted from Rabanal et al. 2015; cited from earlier work.
The test system of series [8] is Pseudomonas aeruginosa 38a. The note with it: P. aeruginosa 38a; comparative examples, extracted from Rabanal et al. 2015; cited from earlier work.
In series [9] the test system is Escherichia coli VAL 5. The note with it: E coli VAL 5; comparative examples, extracted from Rabanal et al. 2015; cited from earlier work.
The test system of series [10] is Pseudomonas aeruginosa 36a. The note with it: P. aeruginosa 36a; comparative examples, extracted from Rabanal et al. 2015; cited from earlier work.

With `CC[C@H](C)CCCCC(=O)N[C@@H](CCN)C(=O)N[C@H](C(=O)N[C@@H](CCN)C(=O)N[C@H]1CCNC(=O)[C@H](C(C)O)NC(=O)[C@H](CCN)NC(=O)[C@H](CCN)NC(=O)[C@H](CC(C)C)NC(=O)[C@@H](Cc2ccccc2)NC(=O)[C@H](CCN)NC1=O)C(C)O` (stereo partly shown) [polymyxin B (8d), Polymyxin B] (X1-[Dab][Thr(3ξ)][Dab][Dab][Dab][dF]L[Dab][Dab][Thr(3ξ)]; lactam 4-C), the “concentration in kidneys as multiple of the serum concentration” value in series [1] is given as “more than 30”.

For “Decanoyl-[Dab]T[Dab]C[Dab][dF]L[Dab][Dab][dC] (cysteine pairing not given here) [Comparative Example 8b]”, the minimum inhibitory concentration (MIC) is 4 µg/mL in series [2], 2 µg/mL in series [3] and 8 µg/mL in series [4].

“Decanoyl-[Dab]T[Dab]C[Dab][dF][Nle][Dab][Dab][dC] (cysteine pairing not given here) [Comparative Example 8c]”: the MIC in [5] was 0.5 µg/mL; in [6], 0.5 µg/mL; in [2] it was 1 µg/mL; in series [3], 2 µg/mL; in series [7] it was 0.5 µg/mL; in [8], 0.5 µg/mL. Moreover, the values for the MIC in series [4] and in [9] were 4 µg/mL and 0.5 µg/mL, respectively.

For “Nonanoyl-[Dab]T[Dab]C[Dab][dF]L[Dab][Dab]C (cysteine pairing not given here) [Comparative Example 8a]”, the MIC in series [2] was 8 µg/mL; in [3], 4 µg/mL; in series [4], more than 32 µg/mL.

Turning to “polymyxin E (colistin) [polymyxin E (colistin) (8e)]”, the MIC was 1 µg/mL in series [10]; 0.5 µg/mL in series [5]; 0.5 µg/mL in series [6]; 1 µg/mL in series [2]; 0.25 µg/mL in [7]; 1 µg/mL in series [8]. In addition, the MIC in series [9] was 0.25 µg/mL.
